Read-outs that look alike come from different tables or passages of the source.
Tests used:
Toxoplasma gondii = assay: In vitro anti-Toxoplasma proliferation in infected HFF monolayers (parasitic index, ScanR microscopy); format: cell-based
Procedure: To investigate the effect of the JF363 on parasite proliferation, human HFFs were infected and treated with JF363 (concentrations ranging from 0 to 2 μM). After 24 h of culture, parasites were enumerated within the parasitophorous vacuole, and the IC50 was calculated for each parasite strain (Table 1).
To assess the drug activity on Toxoplasma gondii, confluent HFF monolayers were infected with parasites, 5 × 10^4 per well, then centrifuged for 30 s at 500× g and incubated for 30 min in a water bath at 37 °C to allow invasion. The wells were then washed three times with phosphate-buffered saline (PBS) to eliminate extracellular parasites, and drugs were added at various concentrations ranging from 1 to 2 μM in triplicate. After 24 h incubation at 37 °C in a humidified atmosphere containing 5% CO2, Hoechst 33342 (5 μg/mL) was added to host cells infected by parasites and further incubated for 20 min. After two washes, cells were fixed with 3.7% formaldehyde for 10 min at 37 °C.
In experiments using nonfluorescent parasites, Toxoplasma vacuoles were fixed for 15 min with 3.7% formaldehyde and stained with anti-GRA1 mAb diluted 1/500 in 2% bovine serum albumin (BSA) and 0.1% Triton X-100 in PBS, for 1 h at room temperature. After two washes, goat serum anti-mouse IgG (H + L)–Alexa-488 (1/500) was added for 20 min. Finally, Hoechst 33342 was added as described above.
The number of infected cells, i.e., cells harboring parasitophorous vacuoles, and the number of parasites per vacuole were determined using an Olympus ScanR microscope (×20 objective) and ScanR software. First, the parasitic index (PI) in % compared to the control was calculated as follows: PI = ((number of parasite/100 cells in treated wells) × (% of infected HFFs in treated well)/(number of parasite/100 cells in untreated wells) × (% of infected HFFs in untreated wells)) × 100. Then, the 50% inhibitory concentration (IC50) was calculated using Prism software (Prism 4 for Mac OS X, version 5.0b, San Diego, CA, USA).

[1] = mouse, in vivo

`COc1cccc(CC(=O)Nc2ccc(C(=O)NO)cc2)c1` [JF363] showed an IC50 (Toxoplasma gondii; 24 h, read-out: IC50 range, strains other than haplogroup I and II, 24 h) of 170 to 430 nM, an IC50 (Toxoplasma gondii; 24 h, strain GUY008-ABE, haplogroup 5, clade F, 24 h, mean ± SD of 3 experiments) of 300 ± 210 nM and an IC50 (Toxoplasma gondii; 24 h, strain GUY009-AKO, haplogroup 10, clade F, 24 h, mean ± SD of 3 experiments) of 430 ± 120 nM. It also gave an IC50 (Toxoplasma gondii; 24 h, strain GUY021-TOJ, haplogroup 10, clade F, 24 h, mean ± SD of 3 experiments) of 270 ± 30 nM, an IC50 (Toxoplasma gondii; 24 h, strain GUY-JAG1, haplogroup 11, no clade, 24 h, mean ± SD of 3 experiments) of 170 ± 340 nM and an IC50 (Toxoplasma gondii; 24 h, strain MAS, haplogroup 4, clade B, 24 h, mean ± SD of 3 experiments) of 210 ± 10 nM. It also gave an IC50 (Toxoplasma gondii; 24 h, strain Prugniaud, haplogroup 2, clade D, 24 h, mean ± SD of 3 experiments) of 270 nM, an IC50 (Toxoplasma gondii; 24 h, strain RH-YFP, haplogroup 1, clade A, 24 h, mean ± SD of 3 experiments) of 560 ± 50 nM and an IC50 (Toxoplasma gondii; 24 h, strain VEG, haplogroup 3, clade C, 24 h, mean ± SD of 3 experiments) of 180 ± 70 nM. The IC50 (Toxoplasma gondii; all tested T. gondii strains, depending on the haplogroup, read-out: IC50 range) was 170 to 560 nM and the “toxicity in healthy treated mice (survival, hair loss, erythema, organ failure)” value [1] was “not toxic”.
